The source of these data is ChEMBL document CHEMBL1125153, “Structure-activity correlations for psychotomimetics. 1. Phenylalkylamines: electronic, volume, and hydrophobicity parameters” (1990).

For one test, the system named is Rattus norvegicus. The test can be described thus: Effective dose in rats trained on 1 mg/kg DOM. The class given is functional.
For the compound `COc1cc(CC(C)N)c(OC)c(OC)c1` (stereo not drawn), the ED50 (commonly the midpoint of the dose-response relation) worked out at 16.5 mg/kg.
Same read-out and setting: then `COc1cc(CCN)c(OC)cc1C`, with 1.31 mg/kg.
Same read-out and setting: then `COc1cc(CC(C)N)cc2c1OCO2` (stereo not drawn), with 3.66 mg/kg.
On the same count and under the same terms, then `COc1ccc(CC(C)N)c(OC)c1` (stereo not drawn), with 4.88 mg/kg; and `COc1cc(CC(C)N)cc(OC)c1OC` (stereo not drawn), with 6.34 mg/kg.
With `COc1ccc(CC(C)N)c(OC)c1OC` (stereo not drawn), the ED50 amounted to 7.8 mg/kg.
Still for that read-out and setting: then `COc1cc(OC)c(CC(C)N)c(OC)c1` (stereo not drawn), with 3.69 mg/kg.
On the same count and under the same terms, then `CCCCc1cc(OC)c(CC(C)N)cc1OC` (stereo not drawn), with 0.91 mg/kg; and `CCc1cc(OC)c(CC(C)N)cc1OC` (stereo not drawn), with 0.23 mg/kg; and `CCCc1cc(OC)c(CC(C)N)cc1OC` (stereo not drawn), with 0.17 mg/kg.
The same measure, in the same setting: then `COc1ccc(OC)c(CC(C)N)c1` (stereo not drawn), with 5.51 mg/kg; and `COc1cc(CC(C)N)c(OC)cc1C` (stereo not drawn) [DOM], with 0.44 mg/kg; and `COc1cc(CCN)cc(OC)c1OC` [MESCALINE], with 14.6 mg/kg.
`CC(N)Cc1ccc2c(c1)OCO2` (stereo not drawn) [TENAMFETAMINE]: the ED50 was 1.68 mg/kg.

The species entered for the next test is Homo sapiens. As to the kind of experiment: Hallucinogenic activity i.e; ratio of effective dose of mescaline to the effective dose in human. The class given is functional.
Take `COc1ccc(CCN)cc1`: the Activity is <1 MU.
The same measure, in the same setting: to `COc1cc(CC(C)N)c(OC)c(OC)c1` (stereo not drawn) belongs 4 MU; to `COc1cc2c(cc1CC(C)N)OCO2` (stereo not drawn), 10 MU; to `CCCCSc1c(OC)cc(CCN)cc1OC`, 3 MU.
Same read-out and setting: to `COc1cc(CCN)c(OC)cc1C` belongs 20 MU; to `CCc1cc(OC)c(CCN)cc1OC`, 18 MU.
For `CCOc1cc(CCN)cc(OC)c1OCC`, the Activity was found to be 1.5 MU.
On the same count and under the same terms, then `COc1cc(CC(C)N)c(OC)c(OC)c1OC` (stereo not drawn), with 6 MU.
Turning to `COc1ccc(OC)c(OC)c1CC(C)N` (stereo not drawn), the Activity came to 10 MU.
Still for that read-out and setting: to `CCSc1cc(CCN)cc(OC)c1OC` belongs 6 MU; to `COc1cc(CC(C)N)c(OC)c2c1OCO2` (stereo not drawn), 12 MU; to `COc1cc(CC(C)N)cc2c1OCO2` (stereo not drawn), 2.7 MU.
As to `CCOc1cc(CCN)cc(SC)c1OCC`, the Activity came to 2 MU.
Same read-out and setting: then `CCOc1c(OC)cc(CCN)cc1SCC`, with 2 MU; and `CCOc1cc(CCN)cc(OC)c1SCC`, with 4 MU; and `CCOc1cc(CCN)cc(OC)c1OC`, with 1 MU.
Still for that read-out and setting: to `COc1c(CC(C)N)ccc2c1OCO2` (stereo not drawn) belongs 10 MU.
The same measure, in the same setting: to `COc1cc(SC(C)C)c(OC)cc1CC(C)N` (stereo not drawn) belongs 40 MU; to `CCCSc1c(OC)cc(CCN)cc1OC`, 16 MU.
`COc1ccc(CC(C)N)c2c1OCO2` (stereo not drawn): the Activity came out at 3 MU.
On the same count and under the same terms, to `CCCCOc1c(OC)cc(CCN)cc1OC` belongs 2 MU; to `CCOc1cc(CCN)cc(OCC)c1OC`, <1 MU; to `CCCOc1cc(OC)c(CC(C)N)cc1OC` (stereo not drawn), 20 MU.
Consider `CCOc1cc(CCN)cc(OCC)c1SC`, for which the Activity is on record as <1 MU.
Regarding `CCOc1cc(CCN)cc(SC)c1OC`, the Activity is on record as <1 MU.
Still for that read-out and setting: then `CCOc1cc(CCN)cc(SCC)c1OCC`, with <1 MU.
Same read-out and setting: to `COc1cc(CC(C)N)cc(C)c1OCc1ccccc1` (stereo not drawn) belongs 2 MU; to `COc1cc(CC(C)N)c(OC)cc1CC(C)C` (stereo not drawn), 20 MU; to `CCCCCc1cc(OC)c(CC(C)N)cc1OC` (stereo not drawn), 10 MU.
The same measure, in the same setting: then `COc1ccc2c(c1CC(C)N)OCO2` (stereo not drawn), with 10 MU; and `CCCOc1cc(CCN)cc(OC)c1OC`, with <1 MU.
Take `COc1ccc(CCN)cc1OC`: the Activity was <0.2 MU.
Same read-out and setting: then `COc1cc(CCN)cc(SC)c1OC`, with 6 MU; and `COc1cc(CCN)cc(OC)c1SC`, with 12 MU; and `COc1ccc(CC(C)N)cc1OC` (stereo not drawn), with 0.5 MU.
Take `COc1ccc(CCN)c(OC)c1OC`: the Activity is recorded as <1 MU.
On the same count and under the same terms, then `COc1ccc(CC(C)N)c(OC)c1` (stereo not drawn), with 5 MU; and `COc1cc(CC(C)N)cc(OC)c1OC` (stereo not drawn), with 2 MU.
On the same count and under the same terms, to `COc1ccc(CC(C)N)c(OC)c1OC` (stereo not drawn) belongs 2 MU.
Still for that read-out and setting: then `CCOc1c(OC)cc(CCN)cc1OC`, with 7 MU; and `CCOc1c(OC)cc(CCN)cc1SC`, with 6 MU; and `CCSc1c(OC)cc(CCN)cc1OC`, with 20 MU.
In the case of `CCCOc1c(OC)cc(CCN)cc1OC`, the Activity is 6 MU.
Still for that read-out and setting: then `COc1cc(OC)c(CC(C)N)c(OC)c1` (stereo not drawn), with 10 MU; and `CCOc1cc(CCN)cc(OCC)c1SCC`, with <1 MU; and `CCOc1cc(CCN)cc(SCC)c1OC`, with <1 MU.
The same measure, in the same setting: then `COc1cc(OC)c(OC)cc1CCN`, with <1 MU.
Still for that read-out and setting: to `CCOc1cc(CCN)cc(OCC)c1OCC` belongs <1 MU; to `NCCc1ccc2c(c1)OCO2`, 1 MU.
Take `CCOc1cc(CCN)cc(OC)c1SC`: the Activity was determined as 4 MU.
As for `COc1c(CC(C)N)cc2c(c1OC)OCO2` (stereo not drawn), the Activity is 5 MU.
Still for that read-out and setting: to `COc1cc(SC)c(OC)cc1CC(C)N` (stereo not drawn) belongs 40 MU.
Same read-out and setting: then `CCCCc1cc(OC)c(CC(C)N)cc1OC` (stereo not drawn), with 40 MU; and `CCc1cc(OC)c(CC(C)N)cc1OC` (stereo not drawn), with 100 MU; and `CCOc1cc(OC)c(CC(C)N)cc1OC` (stereo not drawn), with 20 MU.
Regarding `COc1cc(OC)c(OC)cc1CC(C)N` (stereo not drawn), the Activity is 20 MU.
Still for that read-out and setting: then `CCCc1cc(OC)c(CC(C)N)cc1OC` (stereo not drawn), with 80 MU; and `COc1ccc(OC)c(CC(C)N)c1` (stereo not drawn), with 8 MU; and `COc1cc(CC(C)N)c(OC)cc1C` (stereo not drawn) [DOM], with 80 MU.
For the compound `COc1cc(CCN)cc(OC)c1OC` [MESCALINE], the Activity turned out to be 1 MU.
Same read-out and setting: then `COc1ccc(CC(C)N)cc1` (stereo not drawn) [PARA-METHOXYAMPHETAMINE], with 5 MU.
Same read-out and setting: to `CC(N)Cc1ccc2c(c1)OCO2` (stereo not drawn) [TENAMFETAMINE] belongs 3 MU.

The species entered for another test is Homo sapiens. As to the kind of experiment: Log value of hallucinogenic activity was determined. The class given is functional.
For the compound `COc1ccc(CCN)cc1`, the Log activity is reported as -0.301.
Same read-out and setting: to `COc1cc(CC(C)N)c(OC)c(OC)c1` (stereo not drawn) belongs 0.602; to `COc1cc2c(cc1CC(C)N)OCO2` (stereo not drawn), 1; to `CCCCSc1c(OC)cc(CCN)cc1OC`, 0.477.
The same measure, in the same setting: then `COc1cc(CCN)c(OC)cc1C`, with 1.301.
For `CCc1cc(OC)c(CCN)cc1OC`, the Log activity amounted to 1.255.
With `CCOc1cc(CCN)cc(OC)c1OCC`, the Log activity was 0.176.
Same read-out and setting: to `COc1cc(CC(C)N)c(OC)c(OC)c1OC` (stereo not drawn) belongs 0.778; to `COc1ccc(OC)c(OC)c1CC(C)N` (stereo not drawn), 1.
The same measure, in the same setting: then `CCSc1cc(CCN)cc(OC)c1OC`, with 0.778.
Still for that read-out and setting: then `COc1cc(CC(C)N)c(OC)c2c1OCO2` (stereo not drawn), with 1.079; and `COc1cc(CC(C)N)cc2c1OCO2` (stereo not drawn), with 0.431; and `CCOc1cc(CCN)cc(SC)c1OCC`, with 0.301.
Turning to `CCOc1c(OC)cc(CCN)cc1SCC`, the Log activity was 0.301.
`CCOc1cc(CCN)cc(OC)c1SCC` returned a Log activity of 0.602.
As to `CCOc1cc(CCN)cc(OC)c1OC`, the Log activity was determined as 0.
Still for that read-out and setting: to `COc1c(CC(C)N)ccc2c1OCO2` (stereo not drawn) belongs 1; to `COc1cc(SC(C)C)c(OC)cc1CC(C)N` (stereo not drawn), 1.602; to `CCCSc1c(OC)cc(CCN)cc1OC`, 1.204.
Same read-out and setting: to `COc1ccc(CC(C)N)c2c1OCO2` (stereo not drawn) belongs 0.477.
In turn, `CCCCOc1c(OC)cc(CCN)cc1OC` came in with a Log activity of 0.301.
The same measure, in the same setting: then `CCOc1cc(CCN)cc(OCC)c1OC`, with -0.301.
Take `CCCOc1cc(OC)c(CC(C)N)cc1OC` (stereo not drawn): the Log activity was found to be 1.301.
`CCOc1cc(CCN)cc(OCC)c1SC`: the Log activity is recorded as -0.301.
Regarding `CCOc1cc(CCN)cc(SC)c1OC`, the Log activity was -0.301.
As to `CCOc1cc(CCN)cc(SCC)c1OCC`, the Log activity is -0.301.
Same read-out and setting: then `COc1cc(CC(C)N)cc(C)c1OCc1ccccc1` (stereo not drawn), with 0.301; and `COc1cc(CC(C)N)c(OC)cc1CC(C)C` (stereo not drawn), with 1.301; and `CCCCCc1cc(OC)c(CC(C)N)cc1OC` (stereo not drawn), with 1.
Still for that read-out and setting: then `COc1ccc2c(c1CC(C)N)OCO2` (stereo not drawn), with 1; and `CCCOc1cc(CCN)cc(OC)c1OC`, with -0.301; and `COc1ccc(CCN)cc1OC`, with -1.
`COc1cc(CCN)cc(SC)c1OC`: the Log activity was determined as 0.778.
Same read-out and setting: then `COc1cc(CCN)cc(OC)c1SC`, with 1.079.
In the case of `COc1ccc(CC(C)N)cc1OC` (stereo not drawn), the Log activity is -0.301.
Same read-out and setting: then `COc1ccc(CCN)c(OC)c1OC`, with -0.301; and `COc1ccc(CC(C)N)c(OC)c1` (stereo not drawn), with 0.699; and `COc1cc(CC(C)N)cc(OC)c1OC` (stereo not drawn), with 0.301.
The compound `COc1ccc(CC(C)N)c(OC)c1OC` (stereo not drawn) registered a Log activity of 0.301.
On the same count and under the same terms, to `CCOc1c(OC)cc(CCN)cc1OC` belongs 0.845; to `CCOc1c(OC)cc(CCN)cc1SC`, 0.778.
`CCSc1c(OC)cc(CCN)cc1OC` showed a Log activity of 1.301.
The compound `CCCOc1c(OC)cc(CCN)cc1OC` registered a Log activity of 0.778.
For the compound `COc1cc(OC)c(CC(C)N)c(OC)c1` (stereo not drawn), the Log activity is reported as 1.
On the same count and under the same terms, to `CCOc1cc(CCN)cc(OCC)c1SCC` belongs -0.301.
On the same count and under the same terms, to `CCOc1cc(CCN)cc(SCC)c1OC` belongs -0.301; to `COc1cc(OC)c(OC)cc1CCN`, -0.301; to `CCOc1cc(CCN)cc(OCC)c1OCC`, -0.301.
On the same count and under the same terms, then `NCCc1ccc2c(c1)OCO2`, with 0; and `CCOc1cc(CCN)cc(OC)c1SC`, with 0.602; and `COc1c(CC(C)N)cc2c(c1OC)OCO2` (stereo not drawn), with 0.699.
In the case of `COc1cc(SC)c(OC)cc1CC(C)N` (stereo not drawn), the Log activity was found to be 1.602.
The same measure, in the same setting: to `CCCCc1cc(OC)c(CC(C)N)cc1OC` (stereo not drawn) belongs 1.602; to `CCc1cc(OC)c(CC(C)N)cc1OC` (stereo not drawn), 2.
Same read-out and setting: to `CCOc1cc(OC)c(CC(C)N)cc1OC` (stereo not drawn) belongs 1.301; to `COc1cc(OC)c(OC)cc1CC(C)N` (stereo not drawn), 1.301.
Compound `CCCc1cc(OC)c(CC(C)N)cc1OC` (stereo not drawn) returned a Log activity of 1.903.
The same measure, in the same setting: then `COc1ccc(OC)c(CC(C)N)c1` (stereo not drawn), with 0.903.
As for `COc1cc(CC(C)N)c(OC)cc1C` (stereo not drawn) [DOM], the Log activity turned out to be 1.903.
Still for that read-out and setting: to `COc1cc(CCN)cc(OC)c1OC` [MESCALINE] belongs 0.
The same measure, in the same setting: to `COc1ccc(CC(C)N)cc1` (stereo not drawn) [PARA-METHOXYAMPHETAMINE] belongs 0.699.
The same measure, in the same setting: to `CC(N)Cc1ccc2c(c1)OCO2` (stereo not drawn) [TENAMFETAMINE] belongs 0.477.
